Laboratory results: patent publication US7881777B2, “Method and apparatus for performing intra-operative angiography” (National Research Council of Canada, priority 1999, dated 2011)

System: mouse femoral artery
Test: Mouse femoral vessel diameter by ICG fluorescence angiography under topically applied acetylcholine
Conditions: mouse femoral artery in vivo
Experimental: In this example, a fluorescent dye (ICG) was injected into the vascular bed (via jugular cannulation in the mouse: via an infusion line in the langendorff perfused heart) and excited using radiation from a laser source (806 nm). The fluorescence (radiation) emitted by the dye (830 nm) was captured as a series of angiograms using a CCD camera. The camera relayed the angiograms to analog-to-digital conversion software running on a PC that digitized the angiograms. The digitized images were then analyzed both qualitatively (by viewing the monitor) and quantitatively. One example of quantitative evaluation that was undertaken was the determination of the mouse femoral artery diameter using software comprising a sub-pixel edge detection system running on the PC.
The foregoing fluorescence imaging technique was used on the mouse femoral artery in vivo. A more detailed explanation of each component of the apparatus, preparation of the animal, injection of ICG, and analytical method, are set forth in the following paragraphs.
The mouse was prepared by inducing anesthesia in an induction box using isoflurane (Ohmeda Pharmaceutical Products, Mississauga, ON, Canada) (4% in medical air, 4 L/min) and maintained by use of a facemask providing isoflurane at a rate of 1.5-2.0% in medical air (400 mL/min). During the experiment, the mouse was positioned on a thermostatted water blanket, with body temperature being monitored by a rectal temperature probe. To facilitate imaging of the vessels of interest, the thoracic, abdominal and inguinal areas of the mouse were shaved, the mouse positioned on its back, and the skin over the femoral vasculature was resected to expose the vasculature of interest. The jugular vein was cannulated using a piece of stretched PE10 tubing filled with saline containing 50 U heparin/mL.
After the mouse was prepared, a 10 μl bolus IV injection of ICG was administered, followed by an IV injection of 50 μl of saline solution. To prepare the bolus, 4 μg/ml of clinical grade ICG (CARDIO-GREEN™) was dissolved in sterile aqueous solvent within one hour of injection. All injections were administered via the cannula established in the jugular vein. The saline was used to flush the line and to ensure passage of an intact bolus through the femoral vasculature, producing a sharp wavefront.
Image analysis was performed using XCAP for Windows 95/98/NT version 1.0 (EPIX Inc., Buffalo Grove, Ill.). The image processing algorithm included the following steps.
1. Selection of vessels of interest. The anatomy of the vasculature varies between animals. Consequently, it was necessary to develop criteria for the selection of an area of interest. This process began with the positioning of the camera. The camera was positioned so that the field of view included the femoral artery and its branches. For the purposes of image analysis, the vessels of interest were the femoral artery and the branches that provided the highest resolution and the greatest degree of branching, usually tertiary or quaternary.
2. Calibration. The positioning of the camera with respect to the area being imaged varied with each animal, and it was therefore necessary to calibrate the camera for every image collected. A small diameter (320 μm) capillary tube (TSP320450; Polymicro Technologies, LLC, Phoenix, Ariz.) filled with ICG was used to calibrate the images. The image processing software includes a built-in calibration function that allows the specification of a set of pixel co-ordinates and the assignment of a user-defined value to the distance between these co-ordinates. The software's edge detector was used to determine the co-ordinates of the edges of the dye fluorescing in the capillary tube. The inner diameter of the capillary tube, in microns, was then assigned to the “length” of the distance between these points. Because this is a built-in feature of the software, all subsequent measurements in all frames of the image were stated in microns, rather than pixel units. […]

CC(=O)OCC[N+](C)(C)C [Acetylcholine, acetylcholine]
Vessel Diameter (microns) (Primary vessel, acetylcholine concentration 0.01 μM): 58.2 ± 1.3 microns | Vessel Diameter (microns) (Primary vessel, acetylcholine concentration 1.0 μM): 58.3 ± 1.5 microns | Vessel Diameter (microns) (Primary vessel, acetylcholine concentration 10.0 μM): 64.6 ± 1.5 microns | Vessel Diameter (microns) (Primary vessel, acetylcholine concentration .01 μM): 61.5 ± 1.7 microns | Vessel Diameter (microns) (Secondary vessel, acetylcholine concentration 0.01 μM): 67.0 ± 1.3 microns | Vessel Diameter (microns) (Secondary vessel, acetylcholine concentration 1.0 μM): 90.0 ± 1.8 microns | Vessel Diameter (microns) (Secondary vessel, acetylcholine concentration 10.0 μM): 75.0 ± 1.4 microns | Vessel Diameter (microns) (Secondary vessel, acetylcholine concentration .01 μM): 75.1 ± 1.2 microns | Vessel Diameter (microns) (Tertiary vessel, acetylcholine concentration 0.01 μM): 42.9 ± 0.6 microns | Vessel Diameter (microns) (Tertiary vessel, acetylcholine concentration 1.0 μM): 47.1 ± 1.2 microns | Vessel Diameter (microns) (Tertiary vessel, acetylcholine concentration 10.0 μM): 42.9 ± 0.8 microns | Vessel Diameter (microns) (Tertiary vessel, acetylcholine concentration .01 μM): 44.9 ± 0.6 microns
